Laboratory results from patent publication US20210045385A1, “PYRIDAZINONE-SUBSTITUTED KETOXIMES AS HERBICIDES” (FMC Corporation, priority 2018, published 2021).

How the values were obtained:
Type in all cases: in vivo
kochia (Kochia scoparia) [1] = experiment: Test A postemergence, visual plant response rating; conditions: 500 g ai/ha, postemergence; 0 is no effect, 100 is complete control
In short: (§1)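 Ratings use a 0–100 visual scale (100 = complete control) against untreated controls, scored about 10 days after greenhouse treatment. Test chemicals were formulated in surfactant-containing non-phytotoxic solvent and applied either as soil spray after planting (preemergence) or onto one- to two-leaf, 2–10 cm plants (postemergence).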

[2] = tested on: blackgrass (Alopecurus myosuroides); experiment: Test A postemergence, visual plant response rating; conditions: 500 g ai/ha, postemergence; 0 is no effect, 100 is complete control
In short: as §1

[3] = tested on: ragweed (common ragweed, Ambrosia elatior); experiment: Test A postemergence, visual plant response rating; conditions: 500 g ai/ha, postemergence; 0 is no effect, 100 is complete control
In short: as §1

[4] = tested on: wheat (Triticum aestivum); experiment: Test A postemergence, visual plant response rating; conditions: 500 g ai/ha, postemergence; 0 is no effect, 100 is complete control
In short: as §1

corn (Zea mays) [5] = experiment: Test A postemergence, visual plant response rating; conditions: 500 g ai/ha, postemergence; 0 is no effect, 100 is complete control
In short: as §1

[6] = tested on: galium (catchweed bedstraw, Galium aparine); experiment: Test A postemergence, visual plant response rating; conditions: 500 g ai/ha, postemergence; 0 is no effect, 100 is complete control
In short: as §1

[7] = tested on: foxtail, green (green foxtail, Setaria viridis); experiment: Test A postemergence, visual plant response rating; conditions: 500 g ai/ha, postemergence; 0 is no effect, 100 is complete control
In short: as §1

[8] = tested on: Italian ryegrass (Lolium multiflorum); experiment: Test A postemergence, visual plant response rating; conditions: 500 g ai/ha, postemergence; 0 is no effect, 100 is complete control
In short: as §1

[9] = tested on: pigweed (Amaranthus retroflexus); experiment: Test A postemergence, visual plant response rating; conditions: 500 g ai/ha, postemergence; 0 is no effect, 100 is complete control
In short: as §1

[10] = tested on: barnyardgrass (Echinochloa crus-galli); experiment: Test A postemergence, visual plant response rating; conditions: 500 g ai/ha, postemergence; 0 is no effect, 100 is complete control
In short: as §1

kochia (Kochia scoparia) [11] = experiment: Test A preemergence, visual plant response rating; conditions: 500 g ai/ha Preemergence; approx. 10 days
In short: as §1

[12] = tested on: ragweed (common ragweed, Ambrosia elatior); experiment: Test A preemergence, visual plant response rating; conditions: 500 g ai/ha Preemergence; approx. 10 days
In short: as §1

[13] = tested on: foxtail, green (green foxtail, Setaria viridis); experiment: Test A preemergence, visual plant response rating; conditions: 500 g ai/ha Preemergence; approx. 10 days
In short: as §1

[14] = tested on: Italian ryegrass (Lolium multiflorum); experiment: Test A preemergence, visual plant response rating; conditions: 500 g ai/ha Preemergence; approx. 10 days
In short: as §1

[15] = tested on: pigweed (Amaranthus retroflexus); experiment: Test A preemergence, visual plant response rating; conditions: 500 g ai/ha Preemergence; approx. 10 days
In short: as §1

[16] = tested on: barnyardgrass (Echinochloa crus-galli); experiment: Test A preemergence, visual plant response rating; conditions: 500 g ai/ha Preemergence; approx. 10 days
In short: as §1

kochia (Bassia scoparia) [17] = experiment: Test C preemergence, visual plant response rating; conditions: Test C, 0 is no effect, 100 is complete control
In short: (§2)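 Visual injury on a 0 (no effect) to 100 (complete control) scale versus untreated controls, scored approximately 10 d after treatment under greenhouse conditions. Treatments used surfactant-containing non-phytotoxic solvent formulations, sprayed onto loam–sand soil preemergence or onto one- to two-leaf plants 2–10 cm tall postemergence.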

[18] = tested on: Italian ryegrass (Lolium mutiflorum); experiment: Test C preemergence, visual plant response rating; conditions: Test C, 0 is no effect, 100 is complete control
In short: as §2

[19] = tested on: ragweed (common ragweed, Ambrosia artemisiifolia); experiment: Test C preemergence, visual plant response rating; conditions: Test C, 0 is no effect, 100 is complete control
In short: as §2

[20] = tested on: foxtail, giant (giant foxtail, Setaria faberi); experiment: Test C preemergence, visual plant response rating; conditions: Test C, 0 is no effect, 100 is complete control
In short: as §2

[21] = tested on: pigweed (Amaranthus retroflexus); experiment: Test C preemergence, visual plant response rating; conditions: Test C, 0 is no effect, 100 is complete control
In short: as §2

[22] = tested on: barnyardgrass (Echinochloa crus-galli); experiment: Test C preemergence, visual plant response rating; conditions: Test C, 0 is no effect, 100 is complete control
In short: as §2

kochia (Bassia scoparia) [23] = experiment: Test C postemergence, visual plant response rating
In short: as §2

[24] = tested on: Italian ryegrass (Lolium mutiflorum); experiment: Test C postemergence, visual plant response rating
In short: as §2

[25] = tested on: ragweed (common ragweed, Ambrosia artemisiifolia); experiment: Test C postemergence, visual plant response rating
In short: as §2

[26] = tested on: blackgrass (Alopecurus myosuroides); experiment: Test C postemergence, visual plant response rating
In short: as §2

[27] = tested on: wheat (Triticum aestivum); experiment: Test C postemergence, visual plant response rating
In short: as §2

corn (Zea mays) [28] = experiment: Test C postemergence, visual plant response rating
In short: as §2

[29] = tested on: galium (catchweed bedstraw, Galium aparine); experiment: Test C postemergence, visual plant response rating
In short: as §2

[30] = tested on: foxtail, giant (giant foxtail, Setaria faberi); experiment: Test C postemergence, visual plant response rating
In short: as §2

[31] = tested on: pigweed (Amaranthus retroflexus); experiment: Test C postemergence, visual plant response rating
In short: as §2

[32] = tested on: barnyardgrass (Echinochloa crus-galli); experiment: Test C postemergence, visual plant response rating
In short: as §2

rice (Oryza sativa) = experiment: Test D flooded paddy test, visual plant response rating; conditions: 250 g ai/ha, scale 0 to 100 (0 no effect, 100 complete control), 13 to 15 d
In short: (§3)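 Visual injury scores, 0 (no effect) to 100 (complete control), were assigned after 13 to 15 d in the greenhouse by comparison with controls. Test compounds had been added to paddy water covering soil by 3 cm at the 2-leaf stage.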

[33] = tested on: duck salad (Heteranthera limosa); experiment: as above; conditions: 250 g ai/ha, scale 0 to 100 (0 no effect, 100 complete control), 13 to 15 d
In short: as §3

[34] = tested on: sedge umbrella (small-flower umbrella sedge, Cyperus difformis); experiment: as above; conditions: 250 g ai/ha, scale 0 to 100 (0 no effect, 100 complete control), 13 to 15 d
In short: as §3

[35] = tested on: barnyardgrass (Echinochloa crus-galli); experiment: as above; conditions: 250 g ai/ha, scale 0 to 100 (0 no effect, 100 complete control), 13 to 15 d
In short: as §3

[36] = Test C, postemergence, 125 g ai/ha

CO/N=C(\c1cccc(C)c1)c1c(O)c(C2CC2)nn(C)c1=O [Compound 27]
10: Blackgrass plant response rating (0 to 100 scale) [2] | Ragweed plant response rating (0 to 100 scale) [12] | Ryegrass, Italian plant response rating (0 to 100 scale) [14] | Barnyardgrass plant response rating (0 to 100 scale) [16]
80: Galium plant response rating (0 to 100 scale) [6]
0: Kochia plant response rating (0 to 100 scale) (kochia (Kochia scoparia) [1]) | Corn plant response rating (0 to 100 scale) (corn (Zea mays) [5]) | Foxtail, Green plant response rating (0 to 100 scale) [7] | Barnyardgrass plant response rating (0 to 100 scale) [10] | Kochia plant response rating (0 to 100 scale) (kochia (Kochia scoparia) [11]) | Foxtail, Green plant response rating (0 to 100 scale) [13] | Pigweed plant response rating (0 to 100 scale) [15]
30: Pigweed plant response rating (0 to 100 scale) [9]
20: Wheat plant response rating (0 to 100 scale) [4] | Ryegrass, Italian plant response rating (0 to 100 scale) [8]
40: Ragweed plant response rating (0 to 100 scale) [3]

CO/N=C(\c1c(O)cnn(C)c1=O)c1ccc(F)c2ccccc12 [Compound 303]
40: Kochia plant response rating (0 to 100 scale) (kochia (Bassia scoparia) [23]; Postemergence, 31 g ai/ha) | Ryegrass, Italian plant response rating (0 to 100 scale) [24, 36] | Pigweed plant response rating (0 to 100 scale) ([31]; Postemergence, 31 g ai/ha)
30: Pigweed plant response rating (0 to 100 scale) ([21]; 125 g ai/ha) | Galium plant response rating (0 to 100 scale) ([29]; Postemergence, 31 g ai/ha)
70: Galium plant response rating (0 to 100 scale) [29, 36]
0: Kochia plant response rating (0 to 100 scale) (kochia (Bassia scoparia) [17]; 31 g ai/ha) | Ryegrass, Italian plant response rating (0 to 100 scale) ([18]; 31 g ai/ha) | Ragweed plant response rating (0 to 100 scale) ([19]; 31 g ai/ha) | Foxtail, Giant plant response rating (0 to 100 scale) ([20]; 31 g ai/ha) | Barnyardgrass plant response rating (0 to 100 scale) ([22]; 31 g ai/ha) | Barnyardgrass plant response rating (0 to 100 scale) ([22]; 125 g ai/ha) | Blackgrass plant response rating (0 to 100 scale) ([26]; Postemergence, 31 g ai/ha) | Blackgrass plant response rating (0 to 100 scale) [26, 36] | Wheat plant response rating (0 to 100 scale) ([27]; Postemergence, 31 g ai/ha) | Wheat plant response rating (0 to 100 scale) [27, 36] | Corn plant response rating (0 to 100 scale) (corn (Zea mays) [28]; Postemergence, 31 g ai/ha) | Corn plant response rating (0 to 100 scale) (corn (Zea mays) [28]; [36]) | Foxtail, Giant plant response rating (0 to 100 scale) ([30]; Postemergence, 31 g ai/ha) | Barnyardgrass plant response rating (0 to 100 scale) ([32]; Postemergence, 31 g ai/ha) | Plant response rating, Rice (Flood) (rice (Oryza sativa)) | Plant response rating, Ducksalad (Flood) [33] | Plant response rating, Sedge, Umbrella (Flood) [34] | Plant response rating, Barnyardgrass (Flood) [35]
50: Kochia plant response rating (0 to 100 scale) (kochia (Bassia scoparia) [23]; [36])
20: Ryegrass, Italian plant response rating (0 to 100 scale) ([18]; 125 g ai/ha) | Ragweed plant response rating (0 to 100 scale) ([19]; 125 g ai/ha) | Ryegrass, Italian plant response rating (0 to 100 scale) ([24]; Postemergence, 31 g ai/ha) | Ragweed plant response rating (0 to 100 scale) [25, 36] | Foxtail, Giant plant response rating (0 to 100 scale) [30, 36]
10: Kochia plant response rating (0 to 100 scale) (kochia (Bassia scoparia) [17]; 125 g ai/ha) | Foxtail, Giant plant response rating (0 to 100 scale) ([20]; 125 g ai/ha) | Pigweed plant response rating (0 to 100 scale) ([21]; 31 g ai/ha) | Ragweed plant response rating (0 to 100 scale) ([25]; Postemergence, 31 g ai/ha) | Barnyardgrass plant response rating (0 to 100 scale) [32, 36]
60: Pigweed plant response rating (0 to 100 scale) [31, 36]
